Measured values published in patent publication US8802597B2, “Herbicidal pyrimidines” (E I du Pont de Nemours and Company, priority 2003, dated 2014).
Where two headings read alike, the source gives them in different places.

Legend:
Format in all cases: in vivo
[1] = test system: giant foxtail (Setaria faberii); experiment: Test C pre/postemergence; conditions: for pest or weed control at 16 g/ha: 16 g ai/ha
Summary of the method: (§1)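 Visual injury ratings, 0 (no effect) to 100 (complete control), made 12 to 14 days after treatment by comparison with untreated controls. Greenhouse plants received test chemical in a surfactant-containing non-phytotoxic solvent, either preemergence on planted seeds or postemergence at the 1- to 4-leaf stage.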

[2] = test system: yellow nutsedge (Cyperus esculentus); experiment: Test C pre/postemergence; conditions: for pest or weed control at 16 g/ha: 16 g ai/ha
Summary of the method: as §1

[3] = test system: Surinam grass (Brachiaria decumbens); experiment: Test C pre/postemergence; conditions: for pest or weed control at 16 g/ha: 16 g ai/ha
Summary of the method: as §1

[4] = test system: crabgrass (Digitaria sanguinalis); experiment: Test C pre/postemergence; conditions: for pest or weed control at 16 g/ha: 16 g ai/ha
Summary of the method: as §1

[5] = test system: chickweed (Stellaria media); experiment: Test C postemergence; conditions: Stellaria media, post-emergence
Summary of the method: as §1

[6] = test system: velvetleaf (Abutilon theophrasti); experiment: Test A pre/postemergence
Summary of the method: (§2)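 Seeds sown in loam–sand blend received a preemergence directed soil spray of test chemical in non-phytotoxic solvent with surfactant; same-formulation postemergence spray given concurrently to plants 2–10 cm tall at 1- to 2-leaf stage. Greenhouse ~ten days, then visual injury rating versus untreated controls, 0 (no effect) to 100 (complete control).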

[7] = test system: morningglory (Ipomoea spp.); experiment: Test A pre/postemergence
Summary of the method: as §2

[8] = test system: barnyardgrass (Echinochloa crus-galli); experiment: Test A pre/postemergence
Summary of the method: as §2

[9] = test system: giant foxtail (Setaria faberi); experiment: Test A pre/postemergence
Summary of the method: as §2

[10] = test system: redroot pigweed (Amaranthus retroflexus); experiment: Test A pre/postemergence
Summary of the method: as §2

[11] = test system: crabgrass (Digitaria sanguinalis); experiment: Test A pre/postemergence
Summary of the method: as §2

[12] = Preemergence, 31 g ai/ha, scale 0 to 100, 0 no effect, 100 complete control
[13] = Preemergence, 62 g ai/ha, scale 0 to 100, 0 no effect, 100 complete control
[14] = Preemergence, 125 g ai/ha, scale 0 to 100
[15] = Postemergence, 125 g ai/ha, 0 to 100 scale (0 no effect, 100 complete control)
[16] = Postemergence, 500 g ai/ha, 0 to 100 scale (0 no effect, 100 complete control)
[17] = Preemergence, 125 g ai/ha, 0 to 100 scale where 0 is no effect and 100 is complete control, approximately ten days
[18] = Preemergence, 500 g ai/ha, 0 to 100 scale where 0 is no effect and 100 is complete control, approximately ten days

`Nc1nc(C2CC2)nc(C(=O)O)c1Cl` [Compound 135, 6-amino-5-chloro-2-cyclopropyl-4-pyrimidinecarboxylic acid] was tested, and the “Plant response rating, Foxtail, Giant” value [1, 12] was 0, the “Plant response rating, Foxtail, Giant” value [1, 13] was 0 and the “Plant response rating, Foxtail, Giant” value [1, 14] was 0. The pest or weed control at 125 g/ha ([1]; Setaria faberi, post-emergence, Postemergence, 125 g ai/ha, scale 0 to 100 (0 no effect, 100 complete control), read-out: Foxtail, Giant plant response rating) was 75%, the pest or weed control at 16 g/ha ([1]; Setaria faberi, post-emergence, Postemergence, read-out: Plant response rating (scale of 0 to 100), Foxtail, Giant) was 10% and the pest or weed control at 31 g/ha ([1]; Setaria faberi, post-emergence, Postemergence, 31 g ai/ha, read-out: Plant response rating (scale of 0 to 100), Foxtail, Giant) was 60%. It also gave a pest or weed control at 62 g/ha ([1]; Setaria faberi, post-emergence, Postemergence, 62 g ai/ha, read-out: Plant response rating (scale of 0 to 100), Foxtail, Giant) of 65%, a pest or weed control at 16 g/ha ([1]; Setaria faberi, pre-emergence, Preemergence, scale 0 to 100, 0 no effect, 100 complete control, read-out: Plant response rating, Foxtail, Giant) of 0% and a pest or weed control at 16 g/ha ([2]; Cyperus, post-emergence, Postemergence, read-out: Plant response rating (scale of 0 to 100), Nutsedge, Yellow) of 0%. For the same compound, the pest or weed control at 31 g/ha ([2]; Cyperus, post-emergence, Postemergence, 31 g ai/ha, read-out: Plant response rating (scale of 0 to 100), Nutsedge, Yellow) was 0%, the pest or weed control at 62 g/ha ([2]; Cyperus, post-emergence, Postemergence, 62 g ai/ha, read-out: Plant response rating (scale of 0 to 100), Nutsedge, Yellow) was 15% and the pest or weed control at 125 g/ha ([2]; Cyperus, post-emergence, Postemergence, 125 g ai/ha, scale 0 to 100 (0 no effect, 100 complete control), read-out: Nutsedge, Yellow plant response rating) was 40%. The pest or weed control at 16 g/ha ([2]; Cyperus, pre-emergence, Preemergence, scale 0 to 100, 0 no effect, 100 complete control, read-out: Plant response rating, Nutsedge, Yellow) was 0%, the “Plant response rating, Nutsedge, Yellow” value [2, 12] was 0 and the “Plant response rating, Nutsedge, Yellow” value [2, 13] was 0. For the same compound, the “Plant response rating, Surinam Grass” value [3, 12] was 0, the “Plant response rating, Surinam Grass” value [3, 13] was 0 and the pest or weed control at 125 g/ha ([3]; Urochloa decumbens, post-emergence, Postemergence, 125 g ai/ha, scale 0 to 100 (0 no effect, 100 complete control), read-out: Surinam Grass plant response rating) was 60%. For the same compound, the pest or weed control at 16 g/ha ([3]; Urochloa decumbens, post-emergence, Postemergence, read-out: Plant response rating (scale of 0 to 100), Surinam Grass) was 45%, the pest or weed control at 31 g/ha ([3]; Urochloa decumbens, post-emergence, Postemergence, 31 g ai/ha, read-out: Plant response rating (scale of 0 to 100), Surinam Grass) was 50% and the pest or weed control at 62 g/ha ([3]; Urochloa decumbens, post-emergence, Postemergence, 62 g ai/ha, read-out: Plant response rating (scale of 0 to 100), Surinam Grass) was 60%. The pest or weed control at 16 g/ha ([3]; Urochloa decumbens, pre-emergence, Preemergence, scale 0 to 100, 0 no effect, 100 complete control, read-out: Plant response rating, Surinam Grass) was 0%, the pest or weed control at 16 g/ha ([4]; Digitaria sanguinalis, post-emergence, Postemergence, read-out: Plant response rating (scale of 0 to 100), Crabgrass) was 65% and the pest or weed control at 31 g/ha ([4]; Digitaria sanguinalis, post-emergence, Postemergence, 31 g ai/ha, read-out: Plant response rating (scale of 0 to 100), Crabgrass) was 75%. It also gave a pest or weed control at 62 g/ha ([4]; Digitaria sanguinalis, post-emergence, Postemergence, 62 g ai/ha, read-out: Plant response rating (scale of 0 to 100), Crabgrass) of 75%, a pest or weed control at 125 g/ha ([4]; Digitaria sanguinalis, post-emergence, Postemergence, 125 g ai/ha, scale 0 to 100 (0 no effect, 100 complete control), read-out: Crabgrass plant response rating) of 75% and a pest or weed control at 16 g/ha ([4]; Digitaria sanguinalis, pre-emergence, Preemergence, scale 0 to 100, 0 no effect, 100 complete control, read-out: Plant response rating, Crabgrass) of 0%. For the same compound, the “Plant response rating, Crabgrass” value [4, 12] was 0, the “Plant response rating, Crabgrass” value [4, 13] was 0 and the “Plant response rating, Crabgrass” value [4, 14] was 5. The pest or weed control at 16 g/ha ([5]; 16 g ai/ha, read-out: Plant response rating (scale of 0 to 100), Chickweed) was 0%, the pest or weed control at 31 g/ha ([5]; 31 g ai/ha, read-out: Plant response rating (scale of 0 to 100), Chickweed) was 15% and the pest or weed control at 62 g/ha ([5]; 62 g ai/ha, read-out: Plant response rating (scale of 0 to 100), Chickweed) was 25%. The pest or weed control at 125 g/ha ([5]; 125 g ai/ha, scale 0 to 100 (0 no effect, 100 complete control), read-out: Chickweed plant response rating) was 85%, the “Plant response rating, Velvetleaf” value [6, 15] was 85 and the “Plant response rating, Velvetleaf” value [6, 16] was 100. For the same compound, the “Plant response rating, Velvetleaf” value [6, 17] was 80, the “Plant response rating, Velvetleaf” value [6, 18] was 100 and the “Plant response rating, Morningglory” value [7, 15] was 90. The “Plant response rating, Morningglory” value [7, 16] was 100, the “Plant response rating, Morningglory” value [7, 17] was 95 and the “Plant response rating, Morningglory” value [7, 18] was 100. For the same compound, the “Plant response rating, Barnyardgrass” value [8, 15] was 75, the “Plant response rating, Barnyardgrass” value [8, 16] was 90 and the “Plant response rating, Barnyardgrass” value [8, 17] was 65. For the same compound, the “Plant response rating, Barnyardgrass” value [8, 18] was 90, the “Plant response rating, Foxtail, Giant” value [9, 15] was 75 and the “Plant response rating, Foxtail, Giant” value [9, 16] was 80. The “Plant response rating, Foxtail, Giant” value [9, 17] was 30, the “Plant response rating, Foxtail, Giant” value [9, 18] was 85 and the “Plant response rating, Pigweed” value [10, 15] was 90. The “Plant response rating, Pigweed” value [10, 16] was 95, the “Plant response rating, Pigweed” value [10, 17] was 85 and the “Plant response rating, Pigweed” value [10, 18] was 100. For the same compound, the “Plant response rating, Crabgrass” value [11, 15] was 65, the “Plant response rating, Crabgrass” value [11, 16] was 65 and the “Plant response rating, Crabgrass” value [11, 17] was 75. For the same compound, the “Plant response rating, Crabgrass” value [11, 18] was 95.
